Key:
MES-13 cells = settings: cited from earlier work; for intracellular oxidative states: high glucose cultured MES-13 cells
[1] = system: patients with Duchenne Muscular Dystrophy; assay: PedsQL for Duchenne Muscular Dystrophy Module questionnaire in pediatric DMD patients; format: in vivo, human; settings: 70 mg orally twice per day
Procedure: Thirteen pediatric patients were derived from the Chilean Duchenne Association with confirmed clinical diagnostic. Of the thirteen patients, seven of them used chronic glucocorticoid treatment (Table A). Two of the patients had disease advanced enough so that the patients were no longer ambulatory.
All patients, both those treated with glucocorticoid and those not requiring glucocorticoid, received 70 mg andrographolide (as a standardized extract) orally two times per day. Treatment periods ranged from one month to more than twelve months. […] (Table B)
Thirteen (13) children with DMD of different ages (ranging from 4 to 14 years old) were treated with Andrographis paniculata capsules (either taking corticosteroids or not) for a variable period of time (ranging from one month to two years) (Table A).
Each parent or tutor received a questionnaire with different scores parameters to be completed. The parents were asked to fill out the Pediatric Quality of Life Inventory TM questionnaire (PedsQL for Duchenne Muscular Dystrophy Module) of their perception about; Quality of life, Sleep, Pain, Cold, Walk/Move, Play/Run, Jump, Coordination, Force and Mood of children during Andrographis paniculata treatment (Table B).

CTGF = settings: in vitro (skeletal cells); cited from earlier work
[2] = system: cholestasis-induced apoptosis; settings: in vivo; cited from earlier work
mdx mouse = settings: cited from earlier work
mdx mice [3] = assay: Skeletal muscle histology (H&E) and collagen type I indirect immunofluorescence, tibialis anterior of mdx mice; format: in vivo, mouse; settings: 3 months administration; for damaged areas in muscle, Hematoxylin and Eosin staining: tibialis anterior, compared to vehicle-treated mdx mice
Procedure: We used 12-week-old control or mdx male mice of the C57BL/10 ScSn strain. The animals were kept at room temperature with a 24-hour night-day cycle and were fed with pellets and water ad libitum. Experimental exercise involved running the mice on a treadmill three times per week for 30 minutes each session at 12 m/minute over three or four months. See Morales, MG. et al., Reducing CTGF/CCN2 Slows Down MDX Muscle Dystrophy And Improves Cell Therapy, 22 Hum Mol Genet 4938 (2013), DeLuca, A. et al., Enhanced Dystrophic Progression In MDX Mice By Exercise And Beneficial Effects Of Taurine And Insulin-Like Growth Factor-1, 304 J Pharmacol Exp Ther 453 (2003), DeLuca, A. et al., A Multidisciplinary Evaluation Of The Effectiveness Of Cyclosporine A In Dystrophic MDX Mice, 166 Am J Pathol 477 (2005), Cabello-Verrugio, C. et al., Angiotensin II Receptor Type 1 Blockade CTGF/CCN2-Mediated Damage And Fibrosis In Normal And Dytrophic Skeletal Muscles, 16 J Cell Mol Med 752 (2012). Four experimental groups were designed: animals in the first group were injected intraperitoneally (ip) with andrographolide (1.0 mg/kg/day). Animals in the second group were treated with prednisone (5 mg/kg). Third group, animals were treated with prednisone together with andrographolide. Fourth group animals were injected with saline. At the end of the experiment the muscles were dissected and removed under anesthesia (isofluorane gas) and then the animals were sacrificed. Tissues were used for electrophysiological measurement or rapidly frozen and stored at −80° C. until processing. All protocols were conducted in strict accordance with guidelines and with the formal approval of the Animal Ethics Committee of the Pontificia Universidad Católica de Chile.
Architecture and histology were detected by hematoxylin-eosin (H&E) stain in transverse sections of muscle. See Morales, MG. et al., CTGF/CCN-2 Over-Expression Can Directly Induce Features Of Skeletal Muscle Dystrophy, 225 J Pathol 490 (2011). Collagen Type I was determined as described in Morales, MG. et al., Reducing CTGF/CCN2 Slows Down MDX Muscle Dystrophy And Improves Cell Therapy, 22 Hum Mol Genet 4938 (2013).
Tissue samples evaluated using collagen type I immuno-staining. […] We posit that this prevents tissue damage in mdx mice.

mdx mice [4] = assay: Life expectancy / survival of mdx mice under life-long treatment; format: in vivo, mouse
Procedure: Groups of mdx mice were treated with or without andrographolide (1.0 mg/kg/day) 3 times per weeks starting at one month old until they die naturally. The animals were maintained under free food and water access all the time. Days of death was recorded.
To evaluate whether andrographolide affects survival in dystrophic mice we perform a long term treatment with andrographolide through intra-peritoneal injections, three times per weeks starting at one month old until they die naturally, in order to determine the effects over life expectancy in mdx mice.

mdx mice [5] = assay: Isometric force of isolated muscles from treated exercised mdx mice; format: in vivo, mouse; settings: treadmill exercise, andrographolide 1.0 mg/kg/day ip, prednisone 5 mg/kg, single electro-stimulation and high frequency stimulation
Procedure: We used 12-week-old control or mdx male mice of the C57BL/10 ScSn strain. The animals were kept at room temperature with a 24-hour night-day cycle and were fed with pellets and water ad libitum. Experimental exercise involved running the mice on a treadmill three times per week for 30 minutes each session at 12 m/minute over three or four months. […]
The isometric force of isolated muscles was measured as described previously. Briefly, optimum muscle length (Lo) and stimulation voltage were determined from micromanipulation of muscle length to produce maximum isometric twitch force. Maximum isometric tetanic force (Po) was determined from the plateau of the frequency-force relationship after successive stimulations at 1 to 200 Hz for 450 ms, with 2-minute rests between stimuli. […]

DMD = settings: glucocorticoids such as prednisone; cited from earlier work
dystrophin [6] = settings: mdx mice; cited from earlier work
dystrophin [7] = settings: cited from earlier work
[8] = 12 DMD patients over a six-month period

Which “reduction of apoptosis marker caspase-3, fibrosis marker TGF-β1, and PAI-1” value (MES-13 cells; MES-13 cells, comparison AP2 vs AP1) does the source give for C=C1CCC2C(C)(CO)C(O)CCC2(C)C1C=CC1=CCOC1=O (stereo not drawn) [AP2, 14-deoxy-11,12-didehydro-andrographolide] here?
The value was “more potent activity than AP1”.

And the “phenotypes indicating diabetic nephropathy” value (MES-13 cells; MES-13 cells)?
Its value is “reduced the phenotypes indicating diabetic nephropathy”.

What about the “antioxidant ability in a cellular environment” value (MES-13 cells) of the same molecule?
Its value is “do not have antioxidant ability”.

What about the intracellular oxidative states (MES-13 cells) of the same molecule?
Its intracellular oxidative states is “reduced intracellular oxidative states”.

With C=C1CC[C@@H]2[C@](C)(CO)[C@H](O)CC[C@@]2(C)[C@@H]1C/C=C1/C(=O)OC[C@H]1O [andrographolide, 3-[2-[Decahydro-6-hydroxy-5-(hydroxymethyl)-5,8a-dimethyl-2-methylene-1-napthalenyl]ethylidene]dihydro-4-hydroxy-2(3H)-furanone] as the molecule, how does the “phenotypes indicating diabetic nephropathy” value (MES-13 cells; MES-13 cells) read?
Its value is “reduced the phenotypes indicating diabetic nephropathy”.

And the “antioxidant ability in a cellular environment” value (MES-13 cells)?
The value was “do not have antioxidant ability”.

And the intracellular oxidative states (MES-13 cells)?
Its intracellular oxidative states is “reduced intracellular oxidative states”.

What about the “improvement in quality of life, quality of sleep, pain, colds, coordination, force and mood” value ([1]; 13 DMD patients) of the same molecule?
The value was “important improvement”.

What about the “overall effect on PedsQL parameters” value ([1]; all 13 DMD patients, one month to more than twelve months) of the same molecule?
The value was “slight to important improvement”.

What about the “expression of pro-fibrotic factor CTGF” value (CTGF) of the same molecule?
Its value is “able to inhibit”.

And the “protection against cholestasis-induced apoptosis” value [2]?
Its value is “potent protector”.

And the muscle associated fibrosis (mdx mouse; animal model of DMD, the mdx mouse)?
Its muscle associated fibrosis is “significantly reduces muscle associated fibrosis”.

What about the “exercise resistance in dystrophic mice” value (mdx mouse; mdx mouse) of the same molecule?
Its value is “increase exercise resistance”.

What about the “skeletal muscle force in dystrophic muscles” value (mdx mouse; mdx mouse) of the same molecule?
The value was “increase”.

What about the “fibrosis, collagen type I immuno-staining” value (mdx mice [3]) of the same molecule?
Its value is “diminish fibrosis”.

What about the “damaged areas in muscle, Hematoxylin and Eosin staining” value (mdx mice [3]) of the same molecule?
The value was “prevented the increase of damaged areas”.

What about the total life expectancy (mdx mice [4]; mdx mice, 1.0 mg/kg/day ip three times per week from one month old until natural death, n=6) of the same molecule?
The total life expectancy was “around 21.7±2.35 months”.

What about the “increase of life expectancy of dystrophic mice” value (mdx mice [4]; versus vehicle-treated mdx mice) of the same molecule?
The value was 15%.

What about the “isolated muscle strength (maximal switch force and tetanic contraction)” value (mdx mice [5]) of the same molecule?
Its value is “improved muscle contraction at similar levels than the induced by prednisone”.

Which results are given for C[C@]12C=CC(=O)C=C1CC[C@@H]1[C@@H]2C(=O)C[C@@]2(C)[C@H]1CC[C@]2(O)C(=O)CO [prednisone, reference compound]?
fibrosis, collagen type I immuno-staining (mdx mice [3]): diminish fibrosis; damaged areas in muscle, Hematoxylin and Eosin staining (mdx mice [3]): prevented the increase of damaged areas; isolated muscle strength (maximal switch force and tetanic contraction) (mdx mice [5]): improved muscle contraction; side effects (DMD): severe side effects

Which “dystrophin expression in muscle fibers above normal levels” value (dystrophin [6]) does the source give for gentamicin here?
Its value is 20%.

And the clinical benefits (dystrophin [7]; [8])?
The clinical benefits was “no clinical benefits were observed”.

What about the “patients with dystrophin expression detected” value (dystrophin [7]; [8]) of the same molecule?
Its value is 6 of the 12.

And the “muscle strength and re-expression of dystrophin in muscles” value (dystrophin [7]; one of the studies on DMD patients)?
Its value is “beneficial effect on muscle strength and a re-expression of dystrophin in muscles”.

— patent US11986458B1, “Natural and synthetic andrographolides compounds for the treatment of skeletal muscular dystrophies” (Innobiosciences LLC, priority 2018, dated 2024)
